Results: ChEMBL document CHEMBL1155714, “Spongiadioxins A and B, two new polybrominated dibenzo-p-dioxins from an Australian marine sponge Dysidea dendyi” (J Nat Prod, 2001)
Values after ≈ are worked out from the molar mass of the structure shown.

Experiments:
[1] = Cytotoxicity against mouse EAC cells; format: functional; details: Ehrlich, read-out: ED50 (the source's name)
[2] = Toxicity against mouse; format: organism-based; details: in vivo

Row | SMILES | EC50 [1] | LD50 [2]
1 | Oc1cc(Br)c(Br)c2c1Oc1cc(Br)cc(Br)c1O2 [SPONGIADIOXIN A] | 29 µg/mL (≈ 56.2 µM) | > 150 mg/kg
2 | Oc1c(Br)c(Br)cc2c1Oc1cc(Br)cc(Br)c1O2 [SPONGIADIOXIN B] | 15.5 µg/mL (≈ 30.1 µM) | > 150 mg/kg
